# Measurements from paper PMC3133470, “Activity of Cathelicidin Peptides against Simkania negevensis” (International Journal of Peptides, 2011).
# Where no end group is shown, it is not given here.
# What was measured:
# [1] = system: Simkania negevensis reference strain Z (ATCC VR-1471); assay: Inhibition of Simkania negevensis infectivity (reduction of inclusions) after pre-incubation of elementary bodies with peptide; type: cell-based; details: purified EBs incubated with peptide 2 h at room temperature in PBS/SPG pH 7.4; tenfold dilutions 100 to 0.01 μg/mL; LLC-MK2 cells, 72 h at 35°C; inclusions by immunofluorescence; untreated control mean 74 IFU/mL; means of three experiments in triplicate
# Method: The cathelicidin peptides—PG-1 from pig, Bac7 (1–35) from cattle, SMAP-29 from sheep, LL-37 from human, BMAP-27, and BMAP-28 from cattle—were chemically synthesized, purified, characterized, and provided as lyophilized peptide, as previously reported. The reference strain Z of S. negevensis (American Type Culture Collection VR-1471) was grown in LLC-MK2 cells in 6-large well plates and elementary bodies (EBs) were purified by use of sucrose gradients, resuspended in sucrose-phosphate-glutamic acid buffer (SPG) pH 7.4 (75 g sucrose, 87 mL 0.2 M Na2HPO4, 13 mL 0.2 M NaH2PO4, 0.72 g L-glutamic acid), and frozen in aliquots at −80°C.
# Stock solutions of each peptide at 1 g/liter were prepared in phosphate-buffered saline (PBS), pH 7.4, and stored frozen in 20-μL aliquots at −80°C until used. To determine the lowest peptide concentration required to achieve ≥50% reduction of inclusions with respect to untreated control, the various peptides were diluted tenfold from 200 to 0.02 μg/mL, in a volume of 100 μL with PBS in polypropylene tubes. An equal volume of 5 × 10^5 inclusion-forming units (IFU)/mL of purified S. negevensis EBs in SPG medium was then added, so obtaining a final cathelicidin concentration ranging from 100 to 0.01 μg/mL in a mixture of PBS and SPG at a final pH 7.4. EBs untreated with cathelicidins were used as a control. After incubation at room temperature for 2 h, a 200 μL aliquot was added to 800 μL chlamydial growth medium and inoculated onto LLC-MK2 cells grown in 24-well plates in a 5% CO2 atmosphere. After centrifugation at 800 × g for 1 h at 33°C and incubation at 35°C for 72 h, the cultures were fixed and stained for the presence of inclusions by immunofluorescence using an in-house rabbit polyclonal hyperimmune serum raised against S. negevensis. The number of IFU per coverslip was counted in 40 microscopic fields using a ZEISS UV microscope at a magnification of ×200.
# All tests were performed in triplicate and in three independent experiments.
# Chlamydophila felis = details: previous study of the authors; cited from earlier work
# Method: (§1) With regard to the other chlamydial species tested, only Chlamydophila pneumoniae and Chlamydophila felis were sensitive to 10 μg/mL of SMAP-29 and 80 μg/mL of SMAP-29/Bac7, respectively.
# [2] = system: Chlamydia trachomatis strains; details: previous study of the authors; cited from earlier work
# Method: as §1
Substance,lowest peptide concentration required to achieve ≥50% reduction of inclusions with respect to untreated control [1],concentration to which Chlamydophila felis was sensitive (Chlamydophila felis),concentration with inhibitory effect on Chlamydia trachomatis strains [2]
"Bac7: cathelicidin peptide Bac7 (1–35) from cattle, chemically synthesized (RRIRPRPPRLPRPRPRPLPFPRPGPRPIPRPLPFP; Bactenecin 7; UniProt P19661 131-165, looked up, fragment)",0.1 µg/mL,80 µg/mL,
LL-37,> 100 µg/mL,,> 80 µg/mL
"PG-1: cathelicidin peptide from pig, chemically synthesized; native protegrin-1 has two intramolecular disulfide bonds (RGGRLCYCRRRFCVCVGR; not fully specified (bridges); ends and bridges not checked; also: native protegrin-1 has two intramolecular disulfides, pairing not given here; UniProt P32194 131-148, looked up)",1 µg/mL,,
